Reference: patent publication US20160159954A1, “POLYDENDRONS” (The Univeristy of Liverpool, priority 2013, published 2016)

Legend:
Caco-2 cells [1] = assay: MTT assay cytotoxicity; format: cell-based
Experimental: (§1) Caco-2 cells were purchased from American Type Culture Collection (ATCC, USA) and maintained in Dulbecco's Modified Eagles Medium (DMEM) supplemented with 15% filtered sterile foetal bovine serum. Cells were incubated at 37° C. and 5% CO2 and were routinely sub-cultured every 4 days when 90% confluent. Cell count and viability was determined using a Countess automated cell counter (Invitrogen).
(§2) Caco-2 cells were seeded at a density of 1.0×10^4 cells/100 μl in DMEM supplemented with 15% FBS into each well of a 96 well plate (Nunclon, Denmark) and incubated at 37° C. and 5% CO2. Cells from 4 separate flasks of biological replicates of each cell type were used (N1-4) to improve statistical power. Media was then aspirated from column 1 and replaced with media containing each polydendron or aqueous Nile Red solution at an equivalent 1 μM Nile Red concentration then diluted 1:1 in media across the plate up to column 11. Column 12 served as a negative control and consisted of media and untreated cells. Following polydendron addition, the plates were incubated for 24 hours or 120 hours at 37° C., 5% CO2 prior to assessment of cytotoxicity.
Following incubation of treated plates for 24 h or 120 h, 20 μl of 5 mg ml^−1 MTT reagent was added to each well and incubated for 2 hours. Subsequently, 100 μL MTT lysis buffer (50% N—N-Dimethylformamide in water containing 20% SDS, 2.5% glacial acetic acid and 2.5% hydrochloric acid, pH 4.7) was added to each well to lyse overnight at 37° C., 5% CO2. Following incubation the absorbance of each well was read using a Tecan Genosis plate reader at 560 nm (Tecan Magellan, Austria).

Caco-2 cells [2] = assay: ATP assay (CellTiter-Glo) cytotoxicity; format: cell-based
Experimental: as §1, §2
Following incubation of treated plates for 24 h or 120 h, cells were equilibrated to room temperature for approximately 30 minutes. All but 20 μl of media was removed from each well and 20 μl CellTiter-Glo® (Promega, UK) reagent was added. All reagents were made fresh and in accordance with the manufacturer's instructions. Plates were put on an orbital shaker for 10 minutes to mix contents and allow for stabilisation of luminescence signal. Luminescence was then measured using a Tecan Genios plate reader (Tecan Magellan, Austria).

Caco-2 cell monolayers = assay: Transcellular permeability of Nile Red across Caco-2 monolayers; format: in vitro ADME; conditions: 1 hour incubation
Experimental: Transwells were seeded with 3.5×10^4 cells per well and propagated to a monolayer over a 21 day period, during which media in the apical and basolateral wells was changed every other day. Trans-epithelial electrical resistance (TEER) values were monitored until they were >1300Ω. 1 μM of Nile Red polydendron or 1 μM aqueous Nile Red was added to the apical chamber of 4 wells and the basolateral chamber of 4 wells to quantify transport in both Apical to Basolateral (A>B) and Basolateral to Apical (B>A) direction and sampled on an hourly basis over a 4 h time period. Apparent permeability coefficient was then determined by the amount of compound transported over time using the equation: […]
where (dQ/dt) is the amount per time (nmol·sec^−1), A is the surface area of the filter and C0 is the starting concentration of the donor chamber (1 μM).
100 μl of each collected sample was mixed with 900 μl acetone, vortexed, sonicated for 6 minutes and centrifuged at 13300 rpm for 3 minutes. The supernatant was completely dried in a vacuum centrifuge at 30° C. until the dry solid sample was left. This was reconstituted in 150 μl acetonitrile, transferred to a 96-well black walled, flat bottomed plate and measured for fluorescence intensity excitation wavelength 480 nm, emission wavelength 560 nm using a Tecan Genios plate reader (Tecan Magellan, Austria).

Structure (SMILES): CCN(CC)c1ccc2nc3c4ccccc4c(=O)cc-3oc2c1 [aqueous Nile Red, Nile red]
- effect on metabolic turnover of Caco-2 cells (MTT) (Caco-2 cells [1]; 24 hour incubation, compared to untreated cells, range of concentrations investigated): did not affect metabolic turnover
- effect on viability of Caco-2 cells (MTT) (Caco-2 cells [1]; 120 hour incubation, range of concentrations investigated): did not affect the viability
- EC50, MTT assay (Caco-2 cells [1]; Caco-2 cells, 120 hour incubation, FIG. 7): No EC50
- effect on ATP presence in Caco-2 cells (Caco-2 cells [2]; 24 hour incubation, compared to untreated cells): ATP presence was not affected
- effect on viability of Caco-2 cells (ATP assay) (Caco-2 cells [2]; 120 hour incubation, compared to untreated cells): viability was not affected
- EC50, ATP assay (Caco-2 cells [2]; Caco-2 cells, 120 hour incubation, FIG. 9): No EC50
- A > B/B > A ratio (Caco-2 cell monolayers): 3.7140
